Test results as given in patent US20170037028A1 (BAYER PHARMA AKTIENGESELLSCHAFT, priority 2013, published 2017).

Molecular target: T1, GLUT1 (Homo sapiens, UniProt P11166)
T1 sequence (P11166 1-492): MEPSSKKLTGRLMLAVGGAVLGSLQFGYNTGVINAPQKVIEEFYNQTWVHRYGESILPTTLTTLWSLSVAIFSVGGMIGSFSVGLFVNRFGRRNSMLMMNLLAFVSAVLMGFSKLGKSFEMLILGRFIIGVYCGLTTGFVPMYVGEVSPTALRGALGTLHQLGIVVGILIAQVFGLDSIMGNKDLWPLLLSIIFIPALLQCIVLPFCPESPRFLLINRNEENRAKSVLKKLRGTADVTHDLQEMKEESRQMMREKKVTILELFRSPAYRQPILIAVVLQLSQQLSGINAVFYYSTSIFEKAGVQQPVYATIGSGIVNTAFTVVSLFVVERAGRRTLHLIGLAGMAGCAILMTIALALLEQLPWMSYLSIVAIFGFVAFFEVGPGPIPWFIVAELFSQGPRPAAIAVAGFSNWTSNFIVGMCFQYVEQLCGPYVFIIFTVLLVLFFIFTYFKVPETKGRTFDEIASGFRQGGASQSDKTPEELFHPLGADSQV
Test: Indirect measurement of GLUT1 activity by quantification of intracellular ATP levels (glucose induced ATP increase)
Type: cell-based
Parameters: endogenous in cells; host or cells: DLD1 or CHO-K1
Details: read-out: IC50 regarding glucose induced ATP increase (GLUT1 inhibition)
In short: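 DLD1 or CHO-K1 cells were starved overnight in glucose-free medium with 1% FCS, then combined with an oxidative phosphorylation inhibitor. GLUT1 activity was read as glucose-induced ATP increase, GLUT2 as fructose-induced. Intracellular ATP was quantified by CellTiter-Glo luminescence.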

| IC50 [nM] | SMILES |
| --- | --- |
| 89.9 | Cc1c(NC(=O)c2cc(C(N)=O)nc3cccc(F)c23)c(C(F)(F)F)nn1Cc1ccc(C(C)(C)C#N)cc1 [Example 1597] |
| 1.4 | Cc1nn(Cc2ccc(C(F)(F)F)cc2)c(C)c1NC(=O)c1cc(C(N)=O)nc2cc(F)c(Cl)cc12 [Example 1598] |
| 6.5 | Cc1nn(Cc2ccc(C(F)(F)F)cc2)c(C)c1NC(=O)c1cc(C(N)=O)nc2cc(F)ccc12 [Example 1599] |
| 3.5 | Cc1nn(Cc2ccc(C(F)(F)F)cc2)c(C)c1NC(=O)c1cc(C(N)=O)nc2cccc(F)c12 [Example 1600] |
| 24.6 | Cc1c(NC(=O)c2cc(C(N)=O)nc3cc(F)ccc23)c(C(F)(F)F)nn1Cc1cccc(C(N)=O)c1 [Example 1601] |
| 29.3 | Cc1c(NC(=O)c2cc(C(N)=O)nc3cccc(F)c23)c(C(F)(F)F)nn1Cc1cccc(C(N)=O)c1 [Example 1602] |
| 5.8 | Cc1c(NC(=O)c2cc(C(N)=O)nc3cc(F)c(Cl)cc23)c(C(F)(F)F)nn1Cc1cccc(C(N)=O)c1 [Example 1603] |
| 4.7 | CC(=O)c1ccc(Cn2nc(C(F)(F)F)c(NC(=O)c3cc(C(N)=O)nc4ccccc34)c2C)cc1 [Example 1604] |
| 2.6 | CC(=O)c1ccc(Cn2nc(C(F)(F)F)c(NC(=O)c3cc(C(N)=O)nc4cc(F)ccc34)c2C)cc1 [Example 1605] |
| 2.4 | CC(=O)c1ccc(Cn2nc(C(F)(F)F)c(NC(=O)c3cc(C(N)=O)nc4cccc(F)c34)c2C)cc1 [Example 1606] |
| 3.5 | CC(=O)c1ccc(Cn2nc(C)c(NC(=O)c3cc(C(N)=O)nc4ccccc34)c2C)cc1 [Example 1607] |
| 4 | CC(=O)c1ccc(Cn2nc(C)c(NC(=O)c3cc(C(N)=O)nc4cc(F)ccc34)c2C)cc1 [Example 1608] |
| 1.2 | CC(=O)c1ccc(Cn2nc(C)c(NC(=O)c3cc(C(N)=O)nc4cccc(F)c34)c2C)cc1 [Example 1609] |
| 8.4 | Cc1ccc2c(C(=O)Nc3c(C(F)(F)F)nn(Cc4ccc(C#N)cc4)c3C)cc(C(N)=O)nc2c1 [Example 1610] |
| 0.8 | Cc1c(NC(=O)c2cc(C(N)=O)nc3cc(F)c(Br)cc23)c(C(F)(F)F)nn1Cc1ccc(C#N)cc1 [Example 1611] |
| 2.4 | Cc1nn(Cc2ccc(CC#N)cc2)c(C)c1NC(=O)c1cc(C(N)=O)nc2cccc(F)c12 [Example 1612] |
| 0.7 | Cc1nn(Cc2ccc(CC#N)cc2)c(C)c1NC(=O)c1cc(C(N)=O)nc2cc(F)ccc12 [Example 1613] |
| 0.8 | Cc1nn(Cc2ccc(CC#N)cc2)c(C)c1NC(=O)c1cc(C(N)=O)nc2ccccc12 [Example 1614] |
| 67.4 | Cc1c(NC(=O)c2cc(C(N)=O)nc3cc(F)ccc23)c(C(F)(F)F)nn1Cc1ccc(C2CCC2)cc1 [Example 1616] |
| 54.9 | Cc1c(NC(=O)c2cc(C(N)=O)nc3ccccc23)c(C(F)(F)F)nn1Cc1ccc(C2CCC2)cc1 [Example 1617] |
| 22.3 | Cc1c(NC(=O)c2cc(C(N)=O)nc3cccc(F)c23)c(C(F)(F)F)nn1Cc1ccc(C2CCC2)cc1 [Example 1618] |
| 40.1 | CC(=O)c1cccc(Cn2nc(C(F)(F)F)c(NC(=O)c3cc(C(N)=O)nc4cc(F)ccc34)c2C)c1 [Example 1619] |

| IC50 [nM] | SMILES |
| --- | --- |
| 96.3 | CC(=O)c1cccc(Cn2nc(C(F)(F)F)c(NC(=O)c3cc(C(N)=O)nc4cccc(F)c34)c2C)c1 [Example 1620] |
| 15.3 | CC(=O)c1cccc(Cn2nc(C(F)(F)F)c(NC(=O)c3cc(C(N)=O)nc4cc(F)c(Cl)cc34)c2C)c1 [Example 1621] |
| 50.1 | CC(=O)c1cccc(Cn2nc(C(F)(F)F)c(NC(=O)c3cc(C(N)=O)nc4ccccc34)c2C)c1 [Example 1622] |
| 0.8 | CC(=O)c1cccc(Cn2nc(C)c(NC(=O)c3cc(C(N)=O)nc4cc(F)c(Cl)cc34)c2C)c1 [Example 1623] |
| 18.7 | CC(=O)c1cccc(Cn2nc(C)c(NC(=O)c3cc(C(N)=O)nc4cccc(F)c34)c2C)c1 [Example 1624] |
| 40.9 | CC(=O)c1cccc(Cn2nc(C)c(NC(=O)c3cc(C(N)=O)nc4cc(F)ccc34)c2C)c1 [Example 1625] |
| 107 | CC(=O)c1cccc(Cn2nc(C)c(NC(=O)c3cc(C(N)=O)nc4ccccc34)c2C)c1 [Example 1626] |
| 30.5 | Cc1c(NC(=O)c2cc(C(N)=O)nc3cc(F)ccc23)c(C(F)(F)F)nn1Cc1c(F)cccc1F [Example 1627] |
| 15.3 | Cc1c(NC(=O)c2cc(C(N)=O)nc3ccccc23)c(C(F)(F)F)nn1Cc1c(F)cccc1F [Example 1628] |
| 16.2 | Cc1c(NC(=O)c2cc(C(N)=O)nc3cccc(F)c23)c(C(F)(F)F)nn1Cc1c(F)cccc1F [Example 1629] |
| 4 | Cc1c(NC(=O)c2cc(C(N)=O)nc3cc(F)c(Cl)cc23)c(C(F)(F)F)nn1Cc1c(F)cccc1F [Example 1630] |
| 6.5 | Cc1nn(Cc2c(F)cccc2F)c(C)c1NC(=O)c1cc(C(N)=O)nc2cc(F)ccc12 [Example 1631] |
| 10 | Cc1nn(Cc2c(F)cccc2F)c(C)c1NC(=O)c1cc(C(N)=O)nc2ccccc12 [Example 1632] |
| 4.6 | Cc1nn(Cc2c(F)cccc2F)c(C)c1NC(=O)c1cc(C(N)=O)nc2cccc(F)c12 [Example 1633] |
| 2.2 | Cc1nn(Cc2c(F)cccc2F)c(C)c1NC(=O)c1cc(C(N)=O)nc2cc(F)c(Cl)cc12 [Example 1634] |
| 292 | Cc1c(NC(=O)c2cc(C(N)=O)nc3ccccc23)c(C(F)(F)F)nn1Cc1cccc(S(C)(=O)=O)c1 [Example 1636] |
| 288 | Cc1c(NC(=O)c2cc(C(N)=O)nc3cc(F)ccc23)c(C(F)(F)F)nn1Cc1cccc(S(C)(=O)=O)c1 [Example 1637] |
| 61.3 | Cc1c(NC(=O)c2cc(C(N)=O)nc3cc(F)c(Cl)cc23)c(C(F)(F)F)nn1Cc1cccc(S(C)(=O)=O)c1 [Example 1638] |
| 273 | Cc1c(NC(=O)c2cc(C(N)=O)nc3cccc(F)c23)c(C(F)(F)F)nn1Cc1cccc(S(C)(=O)=O)c1 [Example 1639] |
| 277 | Cc1nn(Cc2cccc(S(C)(=O)=O)c2)c(C)c1NC(=O)c1cc(C(N)=O)nc2cc(F)ccc12 [Example 1640] |
| 168 | Cc1nn(Cc2cccc(S(C)(=O)=O)c2)c(C)c1NC(=O)c1cc(C(N)=O)nc2cccc(F)c12 [Example 1641] |
| 289 | Cc1nn(Cc2cccc(S(C)(=O)=O)c2)c(C)c1NC(=O)c1cc(C(N)=O)nc2ccccc12 [Example 1642] |

| IC50 [nM] | SMILES |
| --- | --- |
| 34.4 | Cc1nn(Cc2cccc(S(C)(=O)=O)c2)c(C)c1NC(=O)c1cc(C(N)=O)nc2cc(F)c(Cl)cc12 [Example 1643] |
| 2.3 | COc1cc(C#N)ccc1Cn1nc(C(F)(F)F)c(NC(=O)c2cc(C(N)=O)nc3cc(F)ccc23)c1C [Example 1646] |
| 2.7 | COc1cc(C#N)ccc1Cn1nc(C(F)(F)F)c(NC(=O)c2cc(C(N)=O)nc3cccc(F)c23)c1C [Example 1647] |
| 2.3 | COc1cc(C#N)ccc1Cn1nc(C(F)(F)F)c(NC(=O)c2cc(C(N)=O)nc3cc(F)c(Cl)cc23)c1C [Example 1648] |
| 67.2 | COc1cc(C#N)ccc1Cn1nc(C)c(NC(=O)c2cc(C(N)=O)nc3cc(F)ccc23)c1C [Example 1649] |
| 10.3 | COc1cc(C#N)ccc1Cn1nc(C)c(NC(=O)c2cc(C(N)=O)nc3cccc(F)c23)c1C [Example 1650] |
| 3.2 | COc1cc(C#N)ccc1Cn1nc(C)c(NC(=O)c2cc(C(N)=O)nc3cc(F)c(Cl)cc23)c1C [Example 1651] |
| 112 | Cc1c(NC(=O)c2cc(C(N)=O)nc3ccccc23)c(C(F)(F)F)nn1Cc1cc(F)ccc1C#N [Example 1652] |
| 266 | Cc1c(NC(=O)c2cc(C(N)=O)nc3cc(F)ccc23)c(C(F)(F)F)nn1Cc1cc(F)ccc1C#N [Example 1653] |
| 221 | Cc1c(NC(=O)c2cc(C(N)=O)nc3cccc(F)c23)c(C(F)(F)F)nn1Cc1cc(F)ccc1C#N [Example 1654] |
| 238 | Cc1c(NC(=O)c2cc(C(N)=O)nc3cc(F)c(Cl)cc23)c(C(F)(F)F)nn1Cc1cc(F)ccc1C#N [Example 1655] |
| 12.5 | Cc1c(NC(=O)c2cc(C(N)=O)nc3cccc(F)c23)c(C(F)(F)F)nn1Cc1ccc(F)cc1C#N [Example 1656] |
| 3.4 | Cc1c(NC(=O)c2cc(C(N)=O)nc3cc(F)c(Cl)cc23)c(C(F)(F)F)nn1Cc1ccc(F)cc1C#N [Example 1657] |
| 3.2 | Cc1c(NC(=O)c2cc(C(N)=O)nc3cc(F)ccc23)c(C(F)(F)F)nn1Cc1ccc(F)cc1C#N [Example 1658] |
| 4.7 | Cc1c(NC(=O)c2cc(C(N)=O)nc3ccccc23)c(C(F)(F)F)nn1Cc1ccc(F)cc1C#N [Example 1659] |
| 1.3 | Cc1nn(Cc2ccc(F)cc2C#N)c(C)c1NC(=O)c1cc(C(N)=O)nc2cc(F)ccc12 [Example 1660] |
| 3.4 | Cc1nn(Cc2ccc(F)cc2C#N)c(C)c1NC(=O)c1cc(C(N)=O)nc2ccccc12 [Example 1661] |
| 4 | Cc1nn(Cc2ccc(F)cc2C#N)c(C)c1NC(=O)c1cc(C(N)=O)nc2cccc(F)c12 [Example 1662] |
| 1.1 | Cc1nn(Cc2ccc(F)cc2C#N)c(C)c1NC(=O)c1cc(C(N)=O)nc2cc(F)c(Cl)cc12 [Example 1663] |
| 2.6 | COc1cc(Cn2nc(C(F)(F)F)c(NC(=O)c3cc(C(N)=O)nc4cc(F)ccc34)c2C)ccc1C#N [Example 1664] |
